# Laboratory results from patent US20260022143A1, “Cyclic Peptide Inhibitors of IL-23” (JANSSEN PHARMACEUTICA NV, priority 2022, published 2026).
# Starred links: 1 amine or outer side, 2 acyl side, 3 side chain; linkers in the order of their positions; H or OH if unused. Positions of bridges follow the written chain, without caps; N, C: chain ends. Non-standard residues stand in square brackets, D forms with d. Residues, ends and D or L forms follow the SMILES beside them. *: point of attachment. X68 = COCCOCCOCCOCCOCCOCCC(=O)N(CCCC[C@@H](N[*:1])C(=O)[*:2])C(C)=O; Me3N+(CH2)2O(CH2)2O(CH2)2CO = C[N+](C)(C)CCOCCOCCC(=O)*; NH(CH2CH2O)2CH2CH2NMe3+ = C[N+](C)(C)CCOCCOCCN*; Trp(7-Me) = Cc1cccc2c(C[C@H](N)C(=O)O)c[nH]c12; Hexanoyl(6-NMe3+) = C[N+](C)(C)CCCCCC(=O)*; dLys(Me3) = C[N+](C)(C)CCCC[C@@H](N)C(=O)O; Lys(Me3) = C[N+](C)(C)CCCC[C@H](N)C(=O)O; 2Nal = N[C@@H](Cc1ccc2ccccc2c1)C(=O)O; Propanoyl(3,3,3-F3) = O=C(CC(F)(F)F)*; AEF = NCCOc1ccc(C[C@H](N)C(=O)O)cc1; X19 = C[N+](C)(C)C[C@@H](CC(=O)O)N*; X10 = C[N+](C)(C)C[C@H](CC(=O)O)N*; 3Pal = N[C@@H](Cc1cccnc1)C(=O)O; Lys(Me) = CNCCCC[C@H](N)C(=O)O; X7 = COCCOCCOCCOCCOCCOCCC(=O)*; Pen = CC(C)(S)[C@H](N)C(=O)O; Thp = NC1(C(=O)O)CCOCC1; Dap = NC[C@H](N)C(=O)O; Me2NCH2CH2 = CN(C)CC*; Sar = CNCC(=O)O
# Test: Exposed Polar Surface Area (EPSA)
# Format: physicochemical
# Conditions: SFC on Chirex 3014 column; sample 1 mM DMSO stock; read-out: EPSA
# Procedure, shortened: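 Polarity descriptor in Å² derived from retention time using 8 calibration standards re-run every 20 compounds. Duplicate injections of 1 mM DMSO stock; linear 5–60% modifier gradient (20 mM ammonium formate in MeOH) with CO2 at 4 mL/min, 35 °C, on a Chirex 3014 column.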
row,Compound,EPSA [A^2]
1,"CC(=O)N[C@@H]1C(=O)N[C@@H](CC(=O)N(C)C)C(=O)N[C@@H]([C@@H](C)O)C(=O)N[C@@H](Cc2c[nH]c3c(C)cccc23)C(=O)N[C@@H](CCCC[N+](C)(C)C)C(=O)N[C@H](C(=O)N[C@@H](Cc2ccc(OCCN(C)C)cc2)C(=O)N[C@@H](Cc2ccc3ccccc3c2)C(=O)NC2(C(=O)N[C@@H](CCCC[N+](C)(C)C)C(=O)N[C@@H](CC(N)=O)C(=O)N[C@@H](Cc3cccnc3)C(=O)N(C)CC(=O)N(C)C)CCOCC2)C(C)(C)SSC1(C)C [compound 117, MeCO-Pen(3)-N(N(Me)2)-T-7MeW-K(Me)3-Pen(3)-AEF(N(Me)2)-2Nal-THP-K(Me)3-N-3Pya-Sar-CON(Me)2] (Ac-[Pen]D(NMe2)T[Trp(7-Me)][Lys(Me3)][Pen]Y(Me2NCH2CH2)[2Nal][Thp][Lys(Me3)]N[3Pal][Sar]-NMe2; disulfide 1-6)",139
2,"CC(=O)N[C@@H]1C(=O)N[C@@H](CC(=O)N(C)C)C(=O)N[C@@H]([C@@H](C)O)C(=O)N[C@@H](Cc2c[nH]c3c(C)cccc23)C(=O)N[C@@H](CCC(=O)N(C)C)C(=O)N[C@H](C(=O)N[C@@H](Cc2ccc(OCCN(C)C)cc2)C(=O)N[C@@H](Cc2ccc3ccccc3c2)C(=O)NC2(C(=O)N[C@@H](CCC(=O)O)C(=O)N[C@@H](CC(N)=O)C(=O)N[C@@H](Cc3cccnc3)C(=O)N(C)CC(=O)N(C)C)CCOCC2)C(C)(C)SSC1(C)C [compound 120, MeCO-Pen(3)-N(N(Me)2)-T-7MeW-Q(N(Me)2)-Pen(3)-AEF(N(Me)2)-2Nal-THP-E-N-3Pya-Sar-CON(Me)2] (Ac-[Pen]D(NMe2)T[Trp(7-Me)]E(NMe2)[Pen]Y(Me2NCH2CH2)[2Nal][Thp]EN[3Pal][Sar]-NMe2; disulfide 1-6)",153
3,COCCOCCOCCOCCOCCOCCC(=O)N(CCCC[C@@H](NC(=O)C1(NC(=O)[C@H](Cc2ccc3ccccc3c2)NC(=O)[C@H](Cc2ccc(OCCN)cc2)NC(=O)[C@H]2NC(=O)[C@H](CCCCNC(C)=O)NC(=O)[C@H](Cc3c[nH]c4c(C)cccc34)NC(=O)[C@H]([C@@H](C)O)NC(=O)[C@H](CC(N)=O)NC(=O)[C@@H](NC(C)=O)C(C)(C)SSC2(C)C)CCOCC1)C(=O)N[C@@H](CC(N)=O)C(=O)N[C@@H](Cc1cccnc1)C(=O)N(C)CC(N)=O)C(C)=O [compound 123] (Ac-[Pen]NT[Trp(7-Me)]K(Ac)[Pen][AEF][2Nal][Thp][X68]N[3Pal][Sar]-NH2; disulfide 1-6),156
4,COCCOCCOCCOCCOCCOCCC(=O)N(C)CCCC[C@@H]1NC(=O)[C@H](Cc2c[nH]c3c(C)cccc23)NC(=O)[C@H]([C@@H](C)O)NC(=O)[C@H](CC(N)=O)NC(=O)[C@@H](NC(C)=O)C(C)(C)SSC(C)(C)[C@@H](C(=O)N[C@@H](Cc2ccc(OCCN)cc2)C(=O)N[C@@H](Cc2ccc3ccccc3c2)C(=O)NC2(C(=O)N[C@@H](CCCCNC(C)=O)C(=O)N[C@@H](CC(N)=O)C(=O)N[C@@H](Cc3cccnc3)C(=O)N(C)CC(N)=O)CCOCC2)NC1=O [compound 124] (Ac-[Pen]NT[Trp(7-Me)][Lys(Me)](X7)[Pen][AEF][2Nal][Thp]K(Ac)N[3Pal][Sar]-NH2; disulfide 1-6),158
5,CC(=O)NCCCC[C@@H]1NC(=O)[C@H](Cc2c[nH]c3c(C)cccc23)NC(=O)[C@H]([C@@H](C)O)NC(=O)[C@H](CC(N)=O)NC(=O)[C@@H](NC(=O)[C@@H](CCC(=O)N[C@@H](CC(=O)O)C[N+](C)(C)C)NC(C)=O)C(C)(C)SSC(C)(C)[C@@H](C(=O)N[C@@H](Cc2ccc(OCCN)cc2)C(=O)N[C@@H](Cc2ccc3ccccc3c2)C(=O)NC2(C(=O)N[C@@H](CCCCNC(C)=O)C(=O)N[C@@H](CC(N)=O)C(=O)N[C@@H](Cc3cccnc3)C(=O)N(C)CC(N)=O)CCOCC2)NC1=O [compound 126] (Ac-[dE](X10)[Pen]NT[Trp(7-Me)]K(Ac)[Pen][AEF][2Nal][Thp]K(Ac)N[3Pal][Sar]-NH2; disulfide 2-7),184
6,CC(=O)NCCCC[C@@H]1NC(=O)[C@H](Cc2c[nH]c3c(C)cccc23)NC(=O)[C@H]([C@@H](C)O)NC(=O)[C@H](CC(N)=O)NC(=O)[C@@H](NC(C)=O)C(C)(C)SSC(C)(C)[C@@H](C(=O)N[C@@H](Cc2ccc(OCCN)cc2)C(=O)N[C@@H](Cc2ccc3ccccc3c2)C(=O)NC2(C(=O)N[C@@H](CCC(=O)N[C@H](CC(=O)O)C[N+](C)(C)C)C(=O)N[C@@H](CC(N)=O)C(=O)N[C@@H](Cc3cccnc3)C(=O)N(C)CC(N)=O)CCOCC2)NC1=O [compound 127] (Ac-[Pen]NT[Trp(7-Me)]K(Ac)[Pen][AEF][2Nal][Thp]E(X19)N[3Pal][Sar]-NH2; disulfide 1-6),179

# Other lines, results leading:
row,EPSA [A^2],Compound
1,175,CC(=O)NCCCC[C@@H]1NC(=O)[C@H](Cc2c[nH]c3c(C)cccc23)NC(=O)[C@H]([C@@H](C)O)NC(=O)[C@H](CC(N)=O)NC(=O)[C@@H](NC(C)=O)C(C)(C)SSC(C)(C)[C@@H](C(=O)N[C@@H](Cc2ccc(OCCN)cc2)C(=O)N[C@@H](Cc2ccc3ccccc3c2)C(=O)NC2(C(=O)N[C@@H](CCC(=O)N[C@@H](CC(=O)O)C[N+](C)(C)C)C(=O)N[C@@H](CC(N)=O)C(=O)N[C@@H](Cc3cccnc3)C(=O)N(C)CC(N)=O)CCOCC2)NC1=O [compound 128] (Ac-[Pen]NT[Trp(7-Me)]K(Ac)[Pen][AEF][2Nal][Thp]E(X10)N[3Pal][Sar]-NH2; disulfide 1-6)
2,163,COCCOCCOCCOCCOCCOCCOCCOCCNC(=O)CN(C)C(=O)[C@H](Cc1cccnc1)NC(=O)[C@H](CC(N)=O)NC(=O)[C@H](CCC(=O)O)NC(=O)C1(NC(=O)[C@H](Cc2ccc3ccccc3c2)NC(=O)[C@H](Cc2ccc(OCCN)cc2)NC(=O)[C@H]2NC(=O)[C@H](CCCCNC(C)=O)NC(=O)[C@H](Cc3c[nH]c4c(C)cccc34)NC(=O)[C@H]([C@@H](C)O)NC(=O)[C@H](CC(N)=O)NC(=O)[C@@H](NC(C)=O)C(C)(C)SSC2(C)C)CCOCC1 [compound 132]
3,151,"CC(=O)NC[C@H](NC(=O)C1(NC(=O)[C@H](Cc2ccc3ccccc3c2)NC(=O)[C@H](Cc2ccc(OCCN(C)C)cc2)NC(=O)[C@H]2NC(=O)[C@H](CCCCN(C)C(C)=O)NC(=O)[C@H](Cc3c[nH]c4c(C)cccc34)NC(=O)[C@H]([C@@H](C)O)NC(=O)[C@H](CC(=O)N(C)C)NC(=O)[C@@H](NC(=O)CCCCC[N+](C)(C)C)C(C)(C)SSC2(C)C)CCOCC1)C(=O)N[C@@H](CC(N)=O)C(=O)N[C@@H](Cc1cccnc1)C(=O)N(C)CC(=O)N(C)C [compound 133, 5cpaCO-Pen(3)-N(N(Me)2)-T-7MeW-K(NMeAc)-Pen(3)-AEF(N(Me)2)-2Nal-THP-Dap(Ac)-N-3Pya-Sar-CON(Me)2] ({Hexanoyl(6-NMe3+)}-[Pen]D(NMe2)T[Trp(7-Me)][Lys(Me)](Ac)[Pen]Y(Me2NCH2CH2)[2Nal][Thp][Dap](Ac)N[3Pal][Sar]-NMe2; disulfide 1-6 (inferred))"
4,159,CC(=O)NCCCC[C@@H]1NC(=O)[C@H](Cc2c[nH]c3c(C)cccc23)NC(=O)[C@H]([C@@H](C)O)NC(=O)[C@H](CC(N)=O)NC(=O)[C@@H](NC(C)=O)C(C)(C)SSC(C)(C)[C@@H](C(=O)N[C@@H](Cc2ccc(OCCN)cc2)C(=O)N[C@@H](Cc2ccc3ccccc3c2)C(=O)NC2(C(=O)N[C@@H](CCC(=O)O)C(=O)N[C@@H](CC(N)=O)C(=O)N[C@@H](Cc3cccnc3)C(=O)N(C)CC(=O)NCCOCCOCC[N+](C)(C)C)CCOCC2)NC1=O [compound 134] (Ac-[Pen]NT[Trp(7-Me)]K(Ac)[Pen][AEF][2Nal][Thp]EN[3Pal][Sar]-{NH(CH2CH2O)2CH2CH2NMe3+}; disulfide 1-6)
5,160,"Cc1cccc2c(C[C@@H]3NC(=O)[C@H]([C@@H](C)O)NC(=O)[C@H](CC(N)=O)NC(=O)[C@@H](NC(=O)CCOCCOCC[N+](C)(C)C)C(C)(C)SSC(C)(C)[C@@H](C(=O)N[C@@H](Cc4ccc(OCCN)cc4)C(=O)N[C@@H](Cc4ccc5ccccc5c4)C(=O)NC4(C(=O)N[C@@H](CCC(=O)N(C)C)C(=O)N[C@@H](CC(N)=O)C(=O)N[C@@H](Cc5cccnc5)C(=O)N(C)CC(N)=O)CCOCC4)NC(=O)[C@H](CCC(=O)N(C)C)NC3=O)c[nH]c12 [compound 137, cPEG3aCO-Pen(3)-N-T-7MeW-Q(N(Me)2)-Pen(3)-AEF-2Nal-THP-Q(N(Me)2)-N-3Pya-Sar-CONH2] ({Me3N+(CH2)2O(CH2)2O(CH2)2CO}-[Pen]NT[Trp(7-Me)]E(NMe2)[Pen][AEF][2Nal][Thp]E(NMe2)N[3Pal][Sar]-NH2; disulfide 1-6)"
6,159,CC(=O)N[C@@H]1C(=O)N[C@@H](CC(N)=O)C(=O)N[C@@H]([C@@H](C)O)C(=O)N[C@@H](Cc2c[nH]c3c(C)cccc23)C(=O)N[C@@H](CCC(=O)N(C)C)C(=O)N[C@H](C(=O)N[C@@H](Cc2ccc(OCCN)cc2)C(=O)N[C@@H](Cc2ccc3ccccc3c2)C(=O)NC2(C(=O)N[C@@H](CCC(=O)N(C)C)C(=O)N[C@@H](CC(N)=O)C(=O)N[C@@H](Cc3cccnc3)C(=O)N(C)CC(N)=O)CCOCC2)C(C)(C)SSC1(C)C [compound 138] (Ac-[Pen]NT[Trp(7-Me)]E(NMe2)[Pen][AEF][2Nal][Thp]E(NMe2)N[3Pal][Sar]-NH2; disulfide 1-6 (inferred))
7,161,"CC(=O)NCCCC[C@@H]1NC(=O)[C@H](Cc2c[nH]c3c(C)cccc23)NC(=O)[C@H]([C@@H](C)O)NC(=O)[C@H](CC(N)=O)NC(=O)[C@@H](NC(=O)[C@@H](CCCC[N+](C)(C)C)NC(=O)CC(F)(F)F)C(C)(C)SSC(C)(C)[C@@H](C(=O)N[C@@H](Cc2ccc(OCCN)cc2)C(=O)N[C@@H](Cc2ccc3ccccc3c2)C(=O)NC2(C(=O)N[C@@H](CCCCNC(C)=O)C(=O)N[C@@H](CC(N)=O)C(=O)N[C@@H](Cc3cccnc3)C(=O)N(C)CC(N)=O)CCOCC2)NC1=O [compound 144] ({Propanoyl(3,3,3-F3)}-[dLys(Me3)][Pen]NT[Trp(7-Me)]K(Ac)[Pen][AEF][2Nal][Thp]K(Ac)N[3Pal][Sar]-NH2; disulfide 2-7)"
